Values quoted from earlier work as cited in patent publication US9205152B2, “Melt-blended protein composition” (Kimberly-Clark Worldwide, Inc., priority 2010, dated 2015).

Conditions: pH prior to incorporation into the composition

OCC(O)CO [glycerol]
pH: about 6
